Results published in US4012576A, “Antibiotic complex Bu 2183” (priority 1975, dated 1977).
Converted amounts (≈) assume the structure as drawn.

Columns and labels:
E. coli A20107 = experiment: MIC, two-fold agar dilution on Nutrient Agar; assay type: cell-based; conditions: Escherichia coli, A20107, Table 6, Ec-49; read-out: MIC
Method: (§1) The minimum inhibitory concentrations (MIC) of Bu-2183 A and B were determined against a wide variety of bacteria by the two-fold agar dilution method on Nutrient Agar plates. The inocula-replicating device of Steers et al. was used. Inoculum size was adjusted to be 10^4 dilution of overnight culture of the test organisms in Heart Infusion Broth (Difco). The results are shown in Table 6 along with those of kanamycin which was comparatively tested as a reference antibiotic.

E. coli A20732 = experiment: MIC, two-fold agar dilution on Nutrient Agar; assay type: cell-based; conditions: Escherichia coli, A20732; Table 6, Ec-72; read-out: MIC
Method: as §1

E. coli JR 35/C600 = experiment: MIC, two-fold agar dilution on Nutrient Agar; assay type: cell-based; conditions: Escherichia coli, JR35/C600
Method: as §1

E. coli JR 66/W677 = experiment: MIC, two-fold agar dilution on Nutrient Agar; assay type: cell-based; conditions: Escherichia coli, JR66/W677, Table 6, Ec-53
Method: as §1

E. coli ML 1630 = experiment: MIC, two-fold agar dilution on Nutrient Agar; assay type: cell-based; conditions: Escherichia coli, ML1630, Table 6, Ec-5; read-out: MIC
Method: as §1

E. coli NIHJ = experiment: MIC, two-fold agar dilution on Nutrient Agar; assay type: cell-based; conditions: Escherichia coli, Table 6, Ec-1; read-out: MIC
Method: as §1

E. coli NR 79/W677 = experiment: MIC, two-fold agar dilution on Nutrient Agar; assay type: cell-based; conditions: Escherichia coli, NR79/W677, Table 6, Ec-9
Method: as §1

E. coli PO 1495 = experiment: MIC, two-fold agar dilution on Nutrient Agar; assay type: cell-based; conditions: Escherichia coli, PO1495; Table 6, Ec-2; read-out: MIC
Method: as §1

E. coli R 5 = experiment: MIC, two-fold agar dilution on Nutrient Agar; assay type: cell-based; conditions: Escherichia coli, R5, Table 6, Ec-55
Method: as §1

Ent. cloacae A20364 = experiment: MIC, two-fold agar dilution on Nutrient Agar; assay type: cell-based; conditions: Enterobacter cloacae, A20364; Table 6, El-2; read-out: MIC
Method: as §1

Ent. cloacae A21006 = experiment: MIC, two-fold agar dilution on Nutrient Agar; assay type: cell-based; conditions: Enterobacter cloacae, A21006; Table 6, El-12; read-out: MIC
Method: as §1

K. pneumoniae D11 = experiment: MIC, two-fold agar dilution on Nutrient Agar; assay type: cell-based; conditions: Klebsiella pneumoniae, D11, Table 6, Kp-1; read-out: MIC
Method: as §1

[1] = tested on: K. pneumoniae Type 22-3038; experiment: MIC, two-fold agar dilution on Nutrient Agar; assay type: cell-based; conditions: Klebsiella pneumoniae, TYPE223038; Table 6, Kp-8; read-out: MIC
Method: as §1

Pr. mirabilis A9554 = experiment: MIC, two-fold agar dilution on Nutrient Agar; assay type: cell-based; conditions: Proteus mirabilis, A9554, Table 6, Pm-1; read-out: MIC
Method: as §1

Pr. morganii A20031 = experiment: MIC, two-fold agar dilution on Nutrient Agar; assay type: cell-based; conditions: Morganella morganii, A20031; Table 6, Pg-2; read-out: MIC
Method: as §1

Pr. vulgaris A9436 = experiment: MIC, two-fold agar dilution on Nutrient Agar; assay type: cell-based; conditions: Proteus vulgaris, A9436, Table 6, Pv-1; read-out: MIC
Method: as §1

Prov. stuartii A20894 = experiment: MIC, two-fold agar dilution on Nutrient Agar; assay type: cell-based; conditions: Providencia stuartii, A20894; Table 6, Ps-2; read-out: MIC
Method: as §1

Ps. aeruginosa A20601 = experiment: MIC, two-fold agar dilution on Nutrient Agar; assay type: cell-based; conditions: Pseudomonas aeruginosa, A20601, Table 6, Pa-21; read-out: MIC
Method: as §1

Ps. aeruginosa A20896 = experiment: MIC, two-fold agar dilution on Nutrient Agar; assay type: cell-based; conditions: Pseudomonas aeruginosa, A20896, Table 6, Pa-24; read-out: MIC
Method: as §1

Ps. aeruginosa No. 130 = experiment: MIC, two-fold agar dilution on Nutrient Agar; assay type: cell-based; conditions: Pseudomonas aeruginosa, NO.130; Table 6, Pa-16; read-out: MIC
Method: as §1

Pseudomonas sp. A20621 = experiment: MIC, two-fold agar dilution on Nutrient Agar; assay type: cell-based; conditions: Pseudomonas, SP.A20621; Table 6, Px-10; read-out: MIC
Method: as §1

S. aureus A20239 = experiment: MIC, two-fold agar dilution on Nutrient Agar; assay type: cell-based; conditions: Staphylococcus aureus, A20239, Table 6, Sa-10; read-out: MIC
Method: as §1

S. aureus D133 = experiment: MIC, two-fold agar dilution on Nutrient Agar; assay type: cell-based; conditions: Staphylococcus aureus, D133, Table 6, Sa-4; read-out: MIC
Method: as §1

S. aureus D137 = experiment: MIC, two-fold agar dilution on Nutrient Agar; assay type: cell-based; conditions: Staphylococcus aureus, D137, Table 6, Sa-9; read-out: MIC
Method: as §1

S. aureus D193 = experiment: MIC, two-fold agar dilution on Nutrient Agar; assay type: cell-based; conditions: Staphylococcus aureus, D193; Table 6, Sa-3; read-out: MIC
Method: as §1

Ser. marcescens A20019 = experiment: MIC, two-fold agar dilution on Nutrient Agar; assay type: cell-based; conditions: Serratia marcescens, A20019; Table 6, Sm-1; read-out: MIC
Method: as §1

Ser. marcescens A21247 = experiment: MIC, two-fold agar dilution on Nutrient Agar; assay type: cell-based; conditions: Serratia marcescens, A21247, Table 6, Sm-16; read-out: MIC
Method: as §1

[2] = tested on: Gram-positive and Gram-negative bacteria; experiment: In vitro antibacterial activity (general); assay type: cell-based
Method: as §1

[3] = tested on: S. aureus Smith, E. coli NIHJ and Ps. aeruginosa A9930; experiment: Experimental infections of mice (all three pathogens); assay type: in vivo; conditions: subcutaneous
Method: Bu-2183 A and B were evaluated in vivo in experimental infections of mice. The pathogenic bacteria employed were S. aureus Smith, E. coli NIHJ and Ps. aeruginosa A9930. Mice were challenged with a 100 × LD50 dose of the pathogens in a 5% suspension of hog gastric mucin. A single subcutaneous treatment with the antibiotic was made immediately after the bacterial challenge (0 hour), and in a double dose schedule the antibiotic was administered at 0 and 3 hours after the challenge.

`CC(=O)NC1C(CO)OC(OC(C(O)CN)C(N)C(O)CO)C(O)C1O` (stereo not shown) [Bu-2183 B] was tested, and the MIC (E. coli A20107) was 50 µg/mL (≈ 130 µM), the MIC (E. coli A20732) was 25 µg/mL (≈ 65.2 µM) and the MIC (E. coli JR 35/C600) was 12.5 µg/mL (≈ 32.6 µM). The MIC (E. coli JR 66/W677) was 25 µg/mL (≈ 65.2 µM), the MIC (E. coli ML 1630) was 50 µg/mL (≈ 130 µM) and the MIC (E. coli NIHJ) was 50 µg/mL (≈ 130 µM). For the same compound, the MIC (E. coli NR 79/W677) was 100 µg/mL (≈ 261 µM), the MIC (E. coli PO 1495) was 50 µg/mL (≈ 130 µM) and the MIC (E. coli R 5) was 100 µg/mL (≈ 261 µM). For the same compound, the MIC (Ent. cloacae A20364) was 50 µg/mL (≈ 130 µM), the MIC (Ent. cloacae A21006) was 100 µg/mL (≈ 261 µM) and the MIC (K. pneumoniae D11) was 12.5 µg/mL (≈ 32.6 µM). It also gave an MIC [1] of 100 µg/mL (≈ 261 µM), an MIC (Pr. mirabilis A9554) of 25 µg/mL (≈ 65.2 µM) and an MIC (Pr. morganii A20031) of 50 µg/mL (≈ 130 µM). The MIC (Pr. vulgaris A9436) was 50 µg/mL (≈ 130 µM), the MIC (Prov. stuartii A20894) was greater than 100 µg/mL and the MIC (Ps. aeruginosa A20601) was 50 µg/mL (≈ 130 µM). For the same compound, the MIC (Ps. aeruginosa A20896) was 100 µg/mL (≈ 261 µM), the MIC (Ps. aeruginosa No. 130) was 100 µg/mL (≈ 261 µM) and the MIC (Pseudomonas sp. A20621) was greater than 100 µg/mL. For the same compound, the MIC (S. aureus A20239) was 100 µg/mL (≈ 261 µM), the MIC (S. aureus D133) was greater than 100 µg/mL and the MIC (S. aureus D137) was greater than 100 µg/mL. The MIC (S. aureus D193) was 25 µg/mL (≈ 65.2 µM), the MIC (Ser. marcescens A20019) was greater than 100 µg/mL and the MIC (Ser. marcescens A21247) was greater than 100 µg/mL. For the same compound, the bio-activity [2] was “bio-active”, the “intrinsic activity in terms of MIC values” [2] was “moderate or rather weak” and the antibacterial spectrum ([2]; in vitro, listed as B) was “broad spectrum of antibacterial activity against Gram-positive and Gram-negative bacteria including many of the aminoglycoside-resistant organisms and Pseudomonas strains”. The in vivo activity [3] was “afforded in vivo activity against all three of the infections tested”.
